These are literature values, as cited in US20050074468A1, “Topical compositions containing nonimmunosuppressive cyclosporin derivatives for treating hair loss” (priority 2001, published 2005).

The subject of this series is mouse's back. Conditions: relative to minoxidil.

For Cyclosporin A, the “hair regrowth effect superior to minoxidil” value was “about 100 times”.
